Data: patent US8604046B2, “Substituted piperidine spiro pyrrolidinone and piperidinone, preparation and therapeutic use thereof” (Sanofi, priority 2008, dated 2013)

What was measured:
[1] = biological target: T1, rhesus H3 receptor (Macaca mulatta, UniProt Q865E1); assay: Rhesus H3 [3H]-methylhistamine radioligand binding assay; set-up: species or system rhesus monkey (Macacca Mulatta); details: [3H]-Methylhistamine 2 nM, rhesus H3 membranes, WGA SPA beads, Cheng-Prusoff
Experimental: (§1) Rhesus H3 membranes were prepared from the Flp-In T-REx 293 Cell Line (Invitrogen) stably transfected with pcDNA5/FRT/TO (Invitrogen) containing the rhesus monkey (Macacca Mulatta) 445 amino acid H3 receptor. (Genbank #AY231164). Stably transfected cultures were amplified in tissue culture flasks by standard tissue culture methods and induced to express rhesus H3 by exposure to 500 ng/ml tetracycline (Cellgro) for 24 hours. After induction, cells were dissociated from flasks utilizing Cell Stripper (Cellgro). Cells were centrifuged (1K×g, 5 min) and pellet frozen in an ethanol-dry ice bath to disrupt cell membranes. Frozen cell pellet was re-suspended in 5 mM HEPES (pH 7.4, Invitrogen) at 10 ml/1000 cm2 of harvested cells. The cell suspension was drawn through an 18 gauge needle (2-3×) followed by a 23 gauge needle (2-3×) to further disrupt cell membranes. The cell suspension was centrifuged (40K×g, 30 min). Cell membrane pellet was re-suspended in 5 mM HEPES (pH 7.4, Invitrogen) at a final protein concentration of 10 mg/ml. Rhesus H3 membranes were stored under liquid nitrogen prior to use in [3H]-Methylhistamine and GTP S radioligand binding assays.
Rhesus H3 radioligand binding assay was performed using rhesus H3 receptor membranes (prepared as described above), [3H]-Methylhistamine (Perkin Elmer) and WGA SPA beads (wheat germ agglutinin scintillation proximity assay) beads (Amersham). The assay was performed in 96-well Opti-Plates (Packard). Each reaction contained 50 μl rhesus H3 membranes (20-30 μg total protein), 50 μl WGA SPA beads (0.1 μg) and 50 μl of 83 Ci/mmol [^3H]-Methylhistamine (final concentration 2 nM) and 50 μl of tested compound. The compounds of this invention and/or vehicle were diluted with binding buffer from 10 mM DMSO stocks. Assay plates were sealed with TopSeal (Perkin Elmer) and mixed on shaker (25° C., 1 hour). Assay plates were read on TopCount scintillation counter (Packard). Results were analyzed by Hill transformation and Ki values were determined by Cheng-Prusoff equation.

[2] = biological target: T1, rhesus H3 receptor; assay: GTPγS radioligand binding assay, inhibition of rhesus H3 constitutive functional activity (inverse agonism); format: biochemical, rhesus monkey (Macacca Mulatta); set-up: concentration or dose not given beside the values; details: rhesus H3 cell membranes, relative to basal levels
Experimental: as §1

T1 sequence (Q865E1 1-445): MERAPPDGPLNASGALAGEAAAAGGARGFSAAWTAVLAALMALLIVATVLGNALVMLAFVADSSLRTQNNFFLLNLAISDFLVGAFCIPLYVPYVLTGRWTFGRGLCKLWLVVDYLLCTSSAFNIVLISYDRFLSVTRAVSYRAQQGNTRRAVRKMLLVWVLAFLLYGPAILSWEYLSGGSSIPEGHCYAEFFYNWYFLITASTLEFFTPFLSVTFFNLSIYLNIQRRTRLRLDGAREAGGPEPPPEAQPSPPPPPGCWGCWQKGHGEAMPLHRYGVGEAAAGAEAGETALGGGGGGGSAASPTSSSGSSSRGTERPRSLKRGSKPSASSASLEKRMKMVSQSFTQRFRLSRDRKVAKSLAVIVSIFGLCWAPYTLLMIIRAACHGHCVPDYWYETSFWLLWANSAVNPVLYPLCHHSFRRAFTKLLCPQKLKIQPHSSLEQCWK

| Compound | Ki [1] | Inverse Agonism: % inhibition of Basal GTPγS binding in Rhesus H3 [2] |
| --- | --- | --- |
| Cc1cc(N2CC[C@H](N3CCC[C@H]3C)C2)ccc1N1CCC2(CCN(CC3CCCC3)CC2)C1=O [Example 10, 8-Cyclopentyl methyl-2-[2-methyl-4-((2R,3′S)-2-methyl-[1,3′]bipyrrolidinyl-1′-l)-phenyl]-2,8-diaza-spiro[4.5]decan-1-one] | 12 nM | −26% |
| Cc1cc(N2CC[C@@H](N3CCC[C@H]3C)C2)ccc1N1CCC2(CCN(CC3CCCC3)CC2)C1=O [Example 11, 8-Cyclopentylmethyl-2-[2-methyl-4-((2R,3′R)-2-methyl-[1,3′]bipyrrolidinyl-1′-l)-phenyl]-2,8-diaza-spiro[4.5]decan-1-one] | 22 nM | −29% |
| Cc1cc(N2CC[C@@H](N3CCC[C@@H]3C)C2)ccc1N1CCC2(CCN(CC3CCCC3)CC2)C1=O [Example 12, 8-Cyclopentylmethyl-2-[2-methyl-4-((2S,3′R)-2-methyl-[1,3′]bipyrrolidinyl-1′-l)-phenyl]-2,8-diaza-spiro[4.5]decan-1-one] | 0.8 nM | −20% |
| Cc1cc(N2CC[C@H](N3CCC[C@@H]3C)C2)ccc1N1CCC2(CCN(CC3CCCC3)CC2)C1=O [Example 13, 8-Cyclopentylmethyl-2-[2-methyl-4-((2S,3′S)-2-methyl-[1,3′]bipyrrolidinyl-1′-l)-phenyl]-2,8-diaza-spiro[4.5]decan-1-one] | 0.8 nM | −37% |
| Cc1cc(N2CCC(N3CCCC3C)C2)ccc1N1CCC2(CCN(CC3CCCC3)CC2)C1=O (stereo not shown) [Example 14, 8-Cyclopentylmethyl-2-[2-methyl-4-(2-methyl-[1,3′]bipyrrolidinyl-1′-l)-phenyl]-2,8-diaza-spiro[4.5]decan-1-one] | 5.6 nM | −31% |
| Cc1cc(N2CC[C@H](N3CCC[C@H]3C)C2)ccc1N1CCC2(CCN(C(=O)c3ccc(OC(F)(F)F)cc3)CC2)C1=O [Example 15, 2-[2-Methyl-4-((2R,3′S)-2-methyl-[1,3′]bipyrrolidinyl-1′-yl)-phenyl]-8-(4-trifluoromethoxy-benzoyl)-2,8-diaza-spiro[4.5]decan-1-one] | 118 nM | −14% |
| Cc1cc(N2CC[C@@H](N3CCC[C@H]3C)C2)ccc1N1CCC2(CCN(C(=O)c3ccc(OC(F)(F)F)cc3)CC2)C1=O [Example 16, 2-[2-Methyl-4-((2R,3′R)-2-methyl-[1,3′]bipyrrolidinyl-1′-yl)-phenyl]-8-(4-trifluoromethoxy-benzoyl)-2,8-diaza-spiro[4.5]decan-1-one] | 100 nM | −13% |
| Cc1cc(N2CC[C@@H](N3CCC[C@@H]3C)C2)ccc1N1CCC2(CCN(C(=O)c3ccc(OC(F)(F)F)cc3)CC2)C1=O [Example 17, 2-[2-Methyl-4-((2S,3′R)-2-methyl-[1,3′]bipyrrolidinyl-1′-yl)-phenyl]-8-(4-trifluoromethoxy-benzoyl)-2,8-diaza-spiro[4.5]decan-1-one] | 1.4 nM | −9% |
| Cc1cc(N2CCC(N3CCCC3C)C2)ccc1N1CCC2(CCN(C(=O)c3ccc(OC(F)(F)F)cc3)CC2)C1=O (stereo not shown) [Example 18, 2-[2-Methyl-4-(2-methyl-[1,3′]bipyrrolidinyl-1′-yl)-phenyl]-8-(4-trifluoromethoxy-benzoyl)-2,8-diaza-spiro[4.5]decan-1-one] | 6.2 nM | −10% |
| Cc1cc(N2CC[C@H](N3CCC[C@@H]3C)C2)ccc1N1CCC2(CCN(C(=O)c3ccc(OC(F)(F)F)cc3)CC2)C1=O [Example 19, 2-[2-Methyl-4-((2S,3′S)-2-methyl-[1,3′]bipyrrolidinyl-1′-yl)-phenyl]-8-(4-trifluoromethoxy-benzoyl)-2,8-diaza-spiro[4.5]decan-1-one] | 1.4 nM | −19% |
| Cc1cc(N2CC[C@H](N3CCC[C@@H]3C)C2)ccc1N1CCCC2(CCN(C(=O)OC(C)(C)C)CC2)C1=O [Example 20, 2-[2-Methyl-4-((2S,3′S)-2-methyl-[1,3′]bipyrrolidinyl-1′-yl)-phenyl]-1-oxo-2,9-diaza-spiro[5.5]undecane-9-carboxylic acid tert-butyl ester] | 6.8 nM | −18% |
| C[C@H]1CCCN1[C@H]1CCN(c2ccc(N3CCCC4(CCN(C(=O)OC(C)(C)C)CC4)C3=O)cc2)C1 [Example 21, 2-[4-((2S,3′S)-2-Methyl-[1,3′]bipyrrolidinyl-1′-yl)-phenyl]-1-oxo-2,9-diaza-spiro[5.5]undecane-9-carboxylic acid tert-butyl ester] | 7.3 nM | −28% |
| Cc1cc(N2CC[C@H](N3CCC[C@@H]3C)C2)ccc1N1CCCC2(CCN(C(=O)c3ccoc3)CC2)C1=O [Example 27, 9-(Furan-3-carbonyl)-2-[2-methyl-4-((2S,3′S)-2-methyl-[1,3′]bipyrrolidinyl-1′-yl)-phenyl]-2,9-diaza-spiro[5.5]undecan-1-one] | 1.6 nM | −19% |
| C[C@H]1CCCN1[C@H]1CCN(c2ccc(N3CCCC4(CCN(C(=O)c5ccccc5)CC4)C3=O)cc2)C1 [Example 28, 9-Benzoyl-2-[4-((2S,3′S)-2-methyl-[1,3′]bipyrrolidinyl-1′-yl)-phenyl]-2,9-diaza-spiro[5.5]undecan-1-one] | 0.5 nM | −15% |
| C[C@H]1CCCN1[C@H]1CCN(c2ccc(N3CCCC4(CCN(C(=O)c5ccc(F)cc5)CC4)C3=O)cc2)C1 [Example 29] | 0.4 nM | −17% |
| C[C@H]1CCCN1[C@H]1CCN(c2ccc(N3CCCC4(CCN(C(=O)C5CCCCC5)CC4)C3=O)c(F)c2)C1 [Example 30, 9-Cyclohexanecarbonyl-2-[2-fluoro-4-((2S,3′S)-2-methyl-[1,3′]bipyrrolidinyl-1′-yl)-phenyl]-2,9-diaza-spiro[5.5]undecan-1-one] | 0.7 nM | −22% |
| C[C@H]1CCCN1[C@H]1CCN(c2ccc(N3CCCC4(CCN(C(=O)C5CCOCC5)CC4)C3=O)c(F)c2)C1 [Example 31, 2-[2-Fluoro-4-((2S,3′S)-2-methyl-[1,3′]bipyrrolidinyl-1′-yl)-phenyl]-9-(tetrahydro-pyran-4-carbonyl)-2,9-diaza-spiro[5.5]undecan-1-one] | 0.4 nM | −19% |
| Cc1cc(N2CC[C@H](N3CCC[C@@H]3C)C2)ccc1N1CCCC2(CCN(C(C)C)CC2)C1=O [Example 32, 9-Isopropyl-2-[2-methyl-4-((2S,3′S)-2-methyl-[1,3′]bipyrrolidinyl-1′-yl)-phenyl]-2,9-diaza-spiro[5.5]undecan-1-one] | 0.4 nM | −14% |
| Cc1cc(N2CC[C@H](N3CCC[C@@H]3C)C2)ccc1N1CCCC2(CCN(CC3CCCCC3)CC2)C1=O [Example 33, 9-Cyclohexylmethyl-2-[2-methyl-4-((2S,3′S)-2-methyl-[1,3′]bipyrrolidinyl-1′-yl)-phenyl]-2,9-diaza-spiro[5.5]undecan-1-one] | 0.2 nM | −14% |
| C[C@H]1CCCN1[C@H]1CCN(c2ccc(N3CCCC4(CCN(CC5CC5)CC4)C3=O)cc2)C1 [Example 34, 9-Cyclopropylmethyl-2-[4-((2S,3′S)-2-methyl-[1,3′]bipyrrolidinyl-1′-yl)-phenyl]-2,9-diaza-spiro[5.5]undecan-1-one] | 0.2 nM | −16% |
| C[C@H]1CCCN1[C@H]1CCN(c2ccc(N3CCCC4(CCN(C5CCOCC5)CC4)C3=O)cc2)C1 [Example 35, 2-[4-((2S,3′S)-2-Methyl-[1,3′]bipyrrolidinyl-1′-yl)-phenyl]-9-(tetrahydro-pyran-4-yl)-2,9-diaza-spiro[5.5]undecan-1-one] | 0.04 nM | −18% |
| C[C@H]1CCCN1[C@H]1CCN(c2ccc(N3CCCC4(CCN(Cc5ccccc5)CC4)C3=O)c(F)c2)C1 [Example 36, 9-Benzyl-2-[2-fluoro-4-((2S,3′S)-2-methyl-[1,3′]bipyrrolidinyl-1′-yl)-phenyl]-2,9-diaza-spiro[5.5]undecan-1-one] | 0.06 nM | −13% |
| C[C@H]1CCCN1[C@H]1CCN(c2ccc(N3CCCC4(CCN(Cc5ccco5)CC4)C3=O)c(F)c2)C1 [Example 37, 2-[2-Fluoro-4-((2S,3′S)-2-methyl-[1,3′]bipyrrolidinyl-1′-yl)-phenyl]-9-furan-2-ylmethyl-2,9-diaza-spiro[5.5]undecan-1-one] | 0.1 nM | −17% |
